The experiment relates to Drosophila melanogaster. The experiment can be described thus: Insecticidal activity against wild type Drosophila melanogaster L. assessed as mortality compound topically applied dorsally to the thorax at 23 to 25 25 degC, 60 to 70%RH measured per adult after 3 hr. The class given is functional.
In the case of `C=C[C@]1(C)CC[C@@H](C(C)(C)O)C[C@H]1C(=C)C` [ALPHA-ELEMOL], the LD50 was determined as 0.65 µg.

On to `C=C1CCC[C@]2(C)CC[C@@H](C(C)(C)O)C[C@@H]12` [BETA-EUDESMOL], for which the LD50 was found to be 2.63 µg.

Turning to `C=C1CCC[C@]2(C)Cc3occ(C)c3C[C@@H]12` [ATRACTYLON], the LD50 was found to be 1.43 µg.

`CC1=CCC[C@H](C)[C@@]12CC[C@@H](C(C)(C)O)C2` [HINESOL]: the LD50 was determined as 0.71 µg.

With `C=C(C)[C@@H]1CC[C@@]2(C)CCCC(=C)[C@@H]2C1` [BETA-SELINENE], the LD50 was 0.55 µg.
